Key:
[1] = molecular target: T1, BRD4 (BD1) (Homo sapiens, UniProt O60885); assay: Binding assay BRD4/acetylated peptide H4 (TR-FRET protein-protein interaction assay)
T1 construct: with relatively long constructs also being possible, preferably amino acids 44-168; made in house; host or cells: E. coli
Method in brief: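 His6-BRD4 BD1 (aa 67-152, E. coli), usually 10 nM, with biotinylated tetra-acetylated H4 peptide in HEPES pH 7.5 buffer; 11 compound concentrations 0.1 nM–20 μM in duplicate, 10 min preincubation, 1 h at 22 °C then ≥3 h at 4 °C. TR-FRET 665/620 ratio; IC50 by 4-parameter fit.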

[2] = tested on: MOLM-13 cells; assay: Cell proliferation assay (alamarBlue), MOLM-13; type: cell-based; conditions: Homo sapiens, 96 hours incubation, inhibition of cell proliferation
Method in brief: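 Cells in RPMI1640/10% FCS read by alamarBlue fluorescence (ex 530, em 590 nm) after overnight 37 °C incubation, then treated at 1E-5 to 1E-8 M for 96 h. Pre-treatment values subtracted from endpoint values and compared with buffer-only wells; IC50 is 50% proliferation inhibition.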

`CNC(=O)N1N=C(c2ccc(-c3ccccc3OC)cc2)c2cc(OC)c(OC)cc2CC1C` (racemic) [Example 90, (±)-7,8-dimethoxy-1-(2′-methoxybiphenyl-4-yl)-N,4-40dimethyl-4,5-dihydro-3H-2,3-benzodiazepine-3-carboxamide] was tested. Which IC50 [1] did it give?
The IC50 was 70 nM.

And the IC50 [2]?
The IC50 was 460 nM.

With `CNC(=O)N1N=C(c2ccc(-c3ccccc3C(F)(F)F)cc2)c2cc(OC)c(OC)cc2CC1C` (racemic) [Example 91, (±)-7,8-dimethoxy-N,4-dimethyl-1-[2′-(trifluoromethyl)biphenyl-4-yl]-4,5-dihydro-3H-2,3-benzodiazepine-3-carboxamide] as the compound, how does the IC50 [1] read?
Its IC50 is 340 nM.

And the IC50 [2]?
The IC50 was 550 nM.

Which results are given for `CNC(=O)N1N=C(c2ccc(-c3ccccc3Cl)cc2)c2cc(OC)c(OC)cc2CC1C` (racemic) [Example 92, (±)-1-(2′-chlorobiphenyl-4-yl)-7,8-dimethoxy-N,4-dimethyl-4,5-dihydro-3H-2,3-benzodiazepine-3-carboxamide]?
IC50 [1]: 180 nM; IC50 [2]: 850 nM

Which IC50 [1] does the source give for `CNC(=O)N1N=C(c2ccc(-c3ccccc3F)cc2)c2cc(OC)c(OC)cc2CC1C` (racemic) [Example 93, (±)-1-(2′-fluorobiphenyl-4-yl)-7,8-dimethoxy-N,4-dimethyl-4,5-dihydro-3H-2,3-benzodiazepine-3-carboxamide] here?
Its IC50 is 120 nM.

And the IC50 [2]?
Its IC50 is 460 nM.

Which results are given for `CNC(=O)N1N=C(c2ccc(-c3ccc(CO)cc3)cc2)c2cc(OC)c(OC)cc2CC1C` (racemic) [Example 94, (±)-1-[4′-(hydroxymethyl)biphenyl-4-yl]-7,8-dimethoxy-N,4-dimethyl-4,5-dihydro-3H-2,3-benzodiazepine-3-carboxamide]?
IC50 [1]: 40 nM; IC50 [2]: 380 nM

What does the source list for `CNC(=O)N1N=C(c2ccc(-c3ccc(OC(F)(F)F)cc3)cc2)c2cc(OC)c(OC)cc2CC1C` (racemic) [Example 95, (±)-7,8-dimethoxy-N,4-dimethyl-1-[4′-(trifluoromethoxy)biphenyl-4-yl]-4,5-dihydro-3H-2,3-benzodiazepine-3-carboxamide]?
IC50 [1]: 630 nM; IC50 [2]: 2760 nM

`CNC(=O)N1N=C(c2ccc(-c3cccc(C(=O)N4CCCCC4)c3)cc2)c2cc(OC)c(OC)cc2CC1C` (racemic) [Example 97, (±)-7,8-dimethoxy-N,4-dimethyl-1-[3′-(piperidin-1-ylcarbonyl)biphenyl-4-yl]-4,5-dihydro-3H-2,3-benzodiazepine-3-carboxamide] was tested. Which IC50 [1] did it give?
Its IC50 is 50 nM.

And the IC50 [2]?
Its IC50 is 450 nM.

For `CNC(=O)N1N=C(c2ccc(-c3cccc(C(=O)N4CCOCC4)c3)cc2)c2cc(OC)c(OC)cc2CC1C` (racemic) [Example 98, (±)-7,8-dimethoxy-N,4-dimethyl-1-[3′-(morpholin-4-ylcarbonyl)biphenyl-4-yl]-4,5-dihydro-3H-2,3-benzodiazepine-3-carboxamide], which IC50 [1] is on record?
The IC50 was 30 nM.

What about the IC50 [2] of the same compound?
The IC50 was 270 nM.

What does the source list for `CNC(=O)N1N=C(c2ccc(-c3cccc(C(=O)NC4CC4)c3)cc2)c2cc(OC)c(OC)cc2CC1C` (racemic) [Example 99, (±)-1-[3′-(cyclopropylcarbamoyl)-biphenyl-4-yl]-7,8-dimethoxy-N,4-dimethyl-4,5-dihydro-3H-2,3-benzodiazepine-3-carboxamide]?
IC50 [1]: 30 nM; IC50 [2]: 270 nM

What does the source list for `CNC(=O)N1N=C(c2ccc(-c3ccnn3C)cc2)c2cc(OC)c(OC)cc2CC1C` (racemic) [Example 101, (±)-7,8-dimethoxy-N,4-dimethyl-1-[4-(1-methyl-1H-pyrazol-5-yl)phenyl]-4,5-dihydro-3H-2,3-benzodiazepine-3-carboxamide]?
IC50 [1]: 60 nM; IC50 [2]: 650 nM

For `CNC(=O)N1N=C(c2ccc(-c3ccc([N+](=O)[O-])cc3)cc2)c2cc(OC)c(OC)cc2CC1C` (racemic) [Example 102, (±)-7,8-dimethoxy-N,4-dimethyl-1-(4′-nitrobiphenyl-4-yl)-4,5-dihydro-3H-2,3-benzodiazepine-3-carboxamide], which IC50 [1] is on record?
The IC50 was 90 nM.

What about the IC50 [2] of the same compound?
Its IC50 is 960 nM.

Which results are given for `CNC(=O)N1N=C(c2ccc(-c3cccnc3)cc2)c2cc(OC)c(OC)cc2CC1C` (racemic) [Example 103, (±)-7,8-dimethoxy-N,4-dimethyl-1-[4-(pyridin-3-yl)phenyl]-4,5-dihydro-3H-2,3-benzodiazepine-3-carboxamide]?
IC50 [1]: 40 nM; IC50 [2]: 350 nM

With `CNC(=O)N1N=C(c2ccc(-c3cnccc3OC)cc2)c2cc(OC)c(OC)cc2CC1C` (racemic) [Example 104, (±)-7,8-dimethoxy-1-[4-(4-methoxypyridin-3-yl)phenyl]-N,4-dimethyl-4,5-dihydro-3H-2,3-benzodiazepine-3-carboxamide] as the compound, how does the IC50 [1] read?
Its IC50 is 30 nM.

And the IC50 [2]?
The IC50 was 260 nM.

Which IC50 [1] does the source give for `CNC(=O)N1N=C(c2ccc(-c3cccc(C#N)c3)cc2)c2cc(OC)c(OC)cc2CC1C` (racemic) [Example 105, (±)-1-(3′-cyanobiphenyl-4-yl)-7,8-dimethoxy-N,4-dimethyl-4,5-dihydro-3H-2,3-benzodiazepine-3-carboxamide] here?
The IC50 was 80 nM.

What about the IC50 [2] of the same compound?
Its IC50 is 670 nM.

Which IC50 [1] does the source give for `CNC(=O)N1N=C(c2ccc(-c3ccc(C#N)cc3)cc2)c2cc(OC)c(OC)cc2CC1C` (racemic) [Example 106, (±)-1-(4′-cyanobiphenyl-4-yl)-7,8-dimethoxy-N,4-dimethyl-4,5-dihydro-3H-2,3-benzodiazepine-3-carboxamide] here?
Its IC50 is 90 nM.

And the IC50 [2]?
The IC50 was 2550 nM.

Which IC50 [1] does the source give for `CNC(=O)N1N=C(c2ccc(-c3ccccc3OC(F)(F)F)cc2)c2cc(OC)c(OC)cc2CC1C` (racemic) [Example 107, (±)-7,8-dimethoxy-N,4-dimethyl-1-[2′-(trifluoromethoxy)biphenyl-4-yl]-4,5-dihydro-3H-2,3-benzodiazepine-3-carboxamide] here?
The IC50 was 260 nM.

What about the IC50 [2] of the same compound?
The IC50 was 630 nM.

With `CNC(=O)N1N=C(c2ccc(-c3ccc(S(C)(=O)=O)cc3)cc2)c2cc(OC)c(OC)cc2CC1C` (racemic) [Example 108, (±)-7,8-dimethoxy-N,4-dimethyl-1-[4′-(methylsulphonyl)biphenyl-4-yl]-4,5-dihydro-3H-2,3-benzodiazepine-3-carboxamide] as the compound, how does the IC50 [1] read?
The IC50 was 60 nM.

What about the IC50 [2] of the same compound?
Its IC50 is 1560 nM.

Which results are given for `CNC(=O)N1N=C(c2ccc(-c3ccccc3C#N)cc2)c2cc(OC)c(OC)cc2CC1C` (racemic) [Example 109, (±)-1-(2′-cyanobiphenyl-4-yl)-7,8-dimethoxy-N,4-dimethyl-4,5-dihydro-3H-2,3-benzodiazepine-3-carboxamide]?
IC50 [1]: 50 nM; IC50 [2]: 1160 nM

With `CNC(=O)N1N=C(c2ccc(-c3ccc(N4CCOCC4)cc3)cc2)c2cc(OC)c(OC)cc2CC1C` (racemic) [Example 110, (±)-7,8-dimethoxy-N,4-dimethyl-1-[4′-(morpholin-4-yl)biphenyl-4-yl]-4,5-dihydro-3H-2,3-benzodiazepine-3-carboxamide] as the compound, how does the IC50 [1] read?
Its IC50 is 60 nM.

What about the IC50 [2] of the same compound?
The IC50 was 360 nM.

How did the IC50 [1] turn out when `CNC(=O)N1N=C(c2ccc(-c3cncnc3)cc2)c2cc(OC)c(OC)cc2CC1C` (racemic) [Example 111, (±)-7,8-dimethoxy-N,4-dimethyl-1-[4-(pyrimidin-5-yl)phenyl]-4,5-dihydro-3H-2,3-benzodiazepine-3-carboxamide] was run?
Its IC50 is 80 nM.

And the IC50 [2]?
Its IC50 is 810 nM.

What does the source list for `CNC(=O)N1N=C(c2ccc(-c3ccccc3CO)cc2)c2cc(OC)c(OC)cc2CC1C` (racemic) [Example 112, (±)-1-[2′-(hydroxymethyl)biphenyl-4-yl]-7,8-dimethoxy-N,4-dimethyl-4,5-dihydro-3H-2,3-benzodiazepine-3-carboxamide]?
IC50 [1]: 80 nM; IC50 [2]: 630 nM
